The target in data set [1] is T1, BCL-XL (Homo sapiens, UniProt Q07817). Put plainly: 1D 1H-NMR binding assay. Also on record: key to 1D-^1H NMR: +++, Very Active; ++, Active; +, Mild; −, Weak. The note with it: for 1D ^1H-NMR Binding Assay (BCL-XL): Table 9. The procedure:
By observing the aliphatic region of the spectra, binding could be readily detected due to chemical shift changes in active site methyl groups of Ile, Leu, Thr, Val or Ala (region between −0.8 and 0.3 ppm). All experiments were performed with a 600 MHz spectrometer Bruker Avance 600 equipped with four rf channels and z-axis pulse-field gradients.
Target sequence in this assay (Q07817 whole entry): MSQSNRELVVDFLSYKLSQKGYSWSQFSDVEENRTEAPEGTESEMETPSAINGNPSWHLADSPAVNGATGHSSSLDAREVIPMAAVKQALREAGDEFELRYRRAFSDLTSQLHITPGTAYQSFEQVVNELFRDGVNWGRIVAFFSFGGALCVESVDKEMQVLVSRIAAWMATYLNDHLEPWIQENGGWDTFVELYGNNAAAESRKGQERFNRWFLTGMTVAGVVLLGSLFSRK

Data set [2] addresses Bcl-2 (Homo sapiens, UniProt P10415). The experiment in a line: Competitive fluorescence polarization assay (FPA), Bim BH3 peptide. It counts as binding. The settings on record: vs Apogossypol. On the technique in general: Fluorescence polarisation rises when a labelled molecule tumbles more slowly, as on binding a larger partner.
For data set [3], the target named is Mcl-1 (Homo sapiens, UniProt Q07820). The data set is described as above. It is filed as binding. The note with it: vs Apogossypol.
Mcl-1, sequence (Q07820 whole entry): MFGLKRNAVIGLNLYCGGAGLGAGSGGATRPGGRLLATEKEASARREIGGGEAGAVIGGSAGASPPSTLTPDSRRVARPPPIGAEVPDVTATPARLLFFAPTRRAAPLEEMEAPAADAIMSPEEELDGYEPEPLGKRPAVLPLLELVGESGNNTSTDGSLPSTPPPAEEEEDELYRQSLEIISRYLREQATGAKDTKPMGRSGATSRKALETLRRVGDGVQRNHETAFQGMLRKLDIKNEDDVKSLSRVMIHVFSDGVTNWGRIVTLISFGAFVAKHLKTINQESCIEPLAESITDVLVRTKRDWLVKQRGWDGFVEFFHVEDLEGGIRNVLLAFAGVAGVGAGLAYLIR
The target of data set [4] is T1, BCL-XL. Put plainly: Isothermal titration calorimetry (ITC). It counts as binding. The settings on record: vs Apogossypol. As to the method: Titrations were performed using a VP-ITC or ITC200 calorimeter from Microcal (Northampton, Mass.). BCL-XL was used at concentrations between 25 and 100 μM in 20 mM sodium phosphate buffer (pH 7.4) and 5-10% DMSO. Titrants were used at concentrations 10-15 fold of that of the protein in the same buffer. Titrations were carried out at 25° C. Data were analyzed using Microcal Origin software provided by the ITC manufacturer (Microcal, Northampton, Mass.).
(In ITC the heat of successive injections is recorded.)
Target sequence in this assay (Q07817 whole entry): as the sequence (Q07817 whole entry) above

The test system of data set [5] is H1299 cell line. Put plainly: Cell viability, ATP-LITE assay. It is filed as cell-based, human. A digest of the protocol: (§1)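 Human cancer lines were seeded at 2000 (H460, H1299), 3000 (PC3) or 10,000 (RS11846) cells/well in F12 or RPMI1640 with 5% FBS. Compounds were added in 0.1% DMSO 24 h after seeding. Viability was read by ATP-LITE luminescence after 72 h and normalized to DMSO controls.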

Data set [6] deals with PC3ML cells. Put plainly: Cell viability, ATP-LITE assay. It counts as cell-based, human. The method in brief:
as §1

Data set [7] relates to H460 human lung cell line. The experiment in a line: Cell viability, ATP-LITE assay. It is filed as cell-based. The method in brief: as §1
Data set [8] deals with RS11846 cell line. The experiment in a line: Cell viability, ATP-LITE assay. The settings on record: Homo sapiens, Table 9; read-out: RS11846 EC50 (ATP-LITE assay). It is filed as cell-based. The method in brief:
as §1

The test system of data set [9] is human lymphoma RS11846 cell line. The experiment in a line: Apoptosis, Annexin V-FITC and propidium iodide assay. It is filed as cell-based.
Description: The apoptotic activity of the compounds against RS11846 cells was assessed by staining with Annexin V- and propidium iodide (PI). Lymphoma cell line, RS11846, was cultured in RPMI 1640 medium (Mediatech Inc., Herndon, Va. 20171) containing 10% fetal bovine serum (Mediatech Inc., Herndon, Va. 20171) and Penicillin/Streptomycin (Mediatech Inc., Herndon, Va. 20171). […] The percentage of viable cells was determined by FITC-Annexin V- and propidium iodide (PI)-labeling, using an Apoptosis Detection kit (BioVision Inc.), and analyzing stained cells by flow cytometry (FACSort; Bectin-Dickinson, Inc.; Mountain View, Calif.). Cells that were annexin-V-negative and PI-negative were considered viable.
Data set [10] is described as follows: PAMPA cell membrane permeability. The settings on record: Table 11; Low/Medium, not defined. It is filed as in vitro ADME. The text has this:
PAMPA is parallel artificial membrane permeation assay.
(In general: In PAMPA a lipid-coated filter parts donor from acceptor wells.)

The test system of data set [11] is B6Bcl-2 transgenic mice. A digest of the protocol:
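B6 line BCL-2 transgenic mice (human BCL-2 fused to IgH locus/enhancer, Balb/c background) sacrificed 24 h post-treatment by lethal i.p. Avertin. Spleen removed and weighed, fixed 3 days in z-FIX for H&E and TUNEL histology.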

Data set [12] has as its target T1, BCL-XL. The experiment in a line: Competitive fluorescence polarization assay (FPA), Bak BH3 peptide. Also on record: 100 nM GST-BCL-XL ΔTM protein. The settings on record: for pIC50: Table 9, read-out: FPA IC50 (BCL-XL). It is filed as binding. The method in brief: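 100 nM GST-BCL-XL ΔTM preincubated with compound in PBS pH 7.4 for 10 min at room temperature, then FITC-Bak BH3 peptide added. Polarization read after 10 min. IC50 from sigmoidal dose-response fit; mean ± SE of three independent experiments.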
Target sequence in this assay (Q07817 1-209 limits assumed): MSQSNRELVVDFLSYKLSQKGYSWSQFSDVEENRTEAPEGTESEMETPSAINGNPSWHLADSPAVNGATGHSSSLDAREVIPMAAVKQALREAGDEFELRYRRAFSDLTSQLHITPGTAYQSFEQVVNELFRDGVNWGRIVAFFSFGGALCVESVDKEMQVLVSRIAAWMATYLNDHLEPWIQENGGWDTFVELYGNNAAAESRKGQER

Data set [13] relates to BP3 human B-cell lymphoma cell line. Put plainly: Annexin V-FITC and propidium iodide assay. It counts as cell-based. The note with it: Table 3; Annexin V-FITC and propidium iodide assay; heading: EC50 BP3; read-out: EC50 BP3.
In data set [14] the test system is BCL-2 transgenic mice. Put plainly: Oral efficacy study in BCL-2 transgenic mice, QDx5 for 3 weeks. The note with it: low dose 0.06 mmol/kg oral. As to the method: The volume of administration was 10 ml/kg, i.e., typically 0.2 mL per 20 gm mouse. […] Age-matched, sex-matched mice were typically dosed 5 times weekly, using a regiment of daily dosing 5 consecutive days (Monday through Friday), followed by resting for 2 days, before resuming dosing. […] At conclusion of treatments, mice were sacrificed via intra-peritoneal (i.p.) injection of 0.7 ml of Avertin and whole blood was collected into Yellow-Top Serum Separator tubes (Becton Dickinson Vacutainer Systems Becton Dickinson and Company, Franklin Lakes, N.J. 07417-1885). Spleens were removed and weighed.
Age-matched and sex-matched BCL-2 transgenic mice were used for efficacy studies. BCL-2 transgenic mice spontaneously developed low grade B-cell lymphoma as characterized by splenomegaly, as a function of time. In BCL-2 transgenic mice, the disease progression can be divided into two stages; at the first stage, the disease is characterized by splenomegaly as a result of expansion of B-cells in spleen due to over-expressed BCL-2 in B6 mice, and at the second stage, another genetic hit(s) may strike, resulting in disseminated lymphoma as characterized by bulky lymphadenopathy as well as splenomegaly.
In this study, BCL-2 transgenic mice at the first stage were used for this efficacy study. […] At conclusion of treatment, BCL-2 transgenic mice were sacrificed via intraperitoneal injection of 0.7 ml of avertin (anesthetic solution) and spleen was removed and weighed. Splenocytes were isolated by the use of mouse erythrocyte lysing kit (RD Systems). Total splenocyte count was determined by trypane blue exclusion assays. % B-cell count was determined by FACS analysis after staining cells with CD-5, a B-cell marker.

The mark [15] stands for this setting: Homo sapiens, NCI-H1299, Table 9, read-out: H1299 EC50.
Where [16] appears, read: Homo sapiens, NCI-H460, Table 9, read-out: H460 EC50.
The mark [17] stands for this setting: Homo sapiens, Table 9, read-out: RS11846 EC50 (Annexin V- and propidium iodide assay).
Setting [18] is: Homo sapiens, PC3-ML, Table 9, read-out: PC3ML EC50.

Each structure is given as a SMILES string. pEC50, pIC50: −log10 of the molar value. Read-outs that look alike come from different tables or passages of the source.

Bcl-2, sequence (P10415 whole entry): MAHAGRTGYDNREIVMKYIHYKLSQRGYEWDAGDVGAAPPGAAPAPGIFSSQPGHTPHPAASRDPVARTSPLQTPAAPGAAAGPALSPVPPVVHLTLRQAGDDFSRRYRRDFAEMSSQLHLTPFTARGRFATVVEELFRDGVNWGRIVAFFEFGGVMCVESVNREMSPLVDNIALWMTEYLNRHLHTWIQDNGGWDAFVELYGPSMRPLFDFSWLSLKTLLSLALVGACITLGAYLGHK

With `Cc1cc2c(C(=O)Cc3ccccc3)c(O)c(O)cc2c(O)c1-c1c(C)cc2c(C(=O)Cc3ccccc3)c(O)c(O)cc2c1O` [Compound I, 1,1′-(1,1′,6,6′,7,7′-hexahydroxy-3,3′-dimethyl-2,2′-binaphthyl-5,5′-diyl)bis(2-phenylethanone)], the “1D ^1H-NMR Binding Assay (BCL-XL)” value in [1] is recorded as “+++”. Besides, in [2], the “times/fold more potent than Apogossypol, FP Bcl-2” value is reported as “approximately 8”. For the same molecule, the “times/fold more potent than Apogossypol, FP Mcl-1” value in data set [3] is on record as roughly 5. Moreover, the “times more potent than Apogossypol, ITC Bcl-XL” value in [4] is reported as 10. Moreover, the pEC50 in [5] (setting [15]) was 5.46; in [7] (setting [16]) it was 6.17; in [8], 5.59; in data set [9] (setting [17]), 5.26 to 5.52. The “fold more potent than Apogossypol, PC3ML” value in [6] (vs Apogossypol) is given as 2-5. In addition, the “times more potent than Apogossypol, H460” value in data set [7] (vs Apogossypol) is 4-5. For the same molecule, the “Cell Permeability” value in data set [10] is recorded as “Medium”. In addition, the “reduction of spleen weight” value in data set [11] (groups of six mice, compound I) is recorded as roughly 40%. In addition, in [11] (single BCL-2 transgenic mouse, 60 μmmol/kg), the “reduction in spleen weight” value came out at 40%. In addition, in data set [12], the pIC50 was 6.72. Further, in [12] (vs Apogossypol), the “times more effective than Apogossypol, FP Bcl-XL” value is roughly 20.
Regarding `Cc1cc2c(C(=O)C3CCCC3)c(O)c(O)cc2c(O)c1-c1c(C)cc2c(C(=O)C3CCCC3)c(O)c(O)cc2c1O` [Compound VI, (1,1′,6,6′,7,7′-hexahydroxy-3,3′-dimethyl-2,2′-binaphthyl-5,5′-diyl)bis(cyclopentylmethanone)], the “1D ^1H-NMR Binding Assay (BCL-XL)” value in data set [1] was “+”. In addition, the pEC50 in [5] (setting [15]) is 5.51; in data set [6] (setting [18]), 5.47; in data set [7] (setting [16]), 5.96; in [8], 5.40; in data set [9] (setting [17]), 5.35. Also, the “Cell Permeability” value in data set [10] is reported as “Low”. Moreover, the pIC50 in data set [12] is 6.35.
Take `Cc1cc2c(C(=O)c3cccc4ccccc34)c(O)c(O)cc2c(O)c1-c1c(C)cc2c(C(=O)c3cccc4ccccc34)c(O)c(O)cc2c1O` [Compound VIII, (1,1′,6,6′,7,7′-hexahydroxy-3,3′-dimethyl-2,2′-binaphthyl-5,5′-diyl)bis(naphthalen-1-ylmethanone)]: in data set [1], the “1D ^1H-NMR Binding Assay (BCL-XL)” value is “+”. Besides, the pEC50 in [5] (setting [15]) is 5.62; in data set [6] (setting [18]) it was 5.52; in [7] (setting [16]), 6.23; in [8] it was 5.74; in data set [9] (setting [17]), 5.26 to 5.52. Besides, in data set [10], the “Cell Permeability” value is given as “Low”. For the same molecule, the pIC50 in data set [12] was 6.80.
For the molecule `Cc1cc2c(C(=O)c3nc4ccccc4s3)c(O)c(O)cc2c(O)c1-c1c(C)cc2c(C(=O)c3nc4ccccc4s3)c(O)c(O)cc2c1O` [Compound XVII, (1,1′,6,6′,7,7′-hexahydroxy-3,3′-dimethyl-2,2′-binaphthyl-5,5′-diyl)bis(benzo[d]thiazol-2-ylmethanone)], in data set [1], the “1D ^1H-NMR Binding Assay (BCL-XL)” value is listed as “+”. Also, the pEC50 is 5.24 in [5] (setting [15]); 5.28 in data set [6] (setting [18]); 5.85 in data set [7] (setting [16]); 5.54 in data set [8]; 5.15 in data set [9] (setting [17]). Also, in data set [10], the “Cell Permeability” value is “Medium”. Further, in data set [12], the pIC50 is 6.35 to 6.85.
Consider `Cc1cc2c(C(=O)C(C)(C)C)c(O)c(O)cc2c(O)c1-c1c(C)cc2c(C(=O)C(C)(C)C)c(O)c(O)cc2c1O` [Compound XVIII, 1,1′-(1,1′,6,6′,7,7′-hexahydroxy-3,3′-dimethyl-2,2′-binaphthyl-5,5′-diyl)bis(2,2-dimethylpropan-1-one)], for which the “1D ^1H-NMR Binding Assay (BCL-XL)” value in data set [1] is on record as “++”. Besides, the pEC50 in data set [9] (Homo sapiens, read-out: RS11846 EC50 (Annexin V- and propidium iodide assay), Table 9) was 4.83. For the same molecule, the “Cell Permeability” value in data set [10] was “Medium”.
For the molecule `CC(=O)O.Cc1cc2c(C(C)C)c(O)c(O)c(C=O)c2c(O)c1-c1c(C)cc2c(C(C)C)c(O)c(O)c(C=O)c2c1O` [Gossypol, reference compound], the “1D-^1H NMR” value in data set [1] (Table 3, BCL-XL 25 μM, compound 200 μM) was “+++”. For the same molecule, the “1D ^1H-NMR Binding Assay (BCL-XL)” value in [1] was “++”. Further, the pEC50 in data set [5] (Table 3, ATP-LITE assay, heading: EC50 H1299, read-out: EC50 H1299) was 5.22; in data set [6] (Table 3, ATP-LITE assay, heading: EC50 PC3ML, read-out: EC50 PC3ML), 5.51; in data set [7] (Table 3, ATP-LITE assay, heading: EC50 H460, read-out: EC50 H460) it was 5.52; in [9] (Table 3, Annexin V-FITC and propidium iodide assay, heading: EC50 RS11846, read-out: EC50 RS11846) it was 5.38; in data set [13], 5.85. In data set [11] (Bcl-2 transgenic mouse, single ip injection 72 μmol/kg), the Tox is recorded as 2+. Besides, the “percentage of maximum reduction in spleen weight (maximal biological activity)” value in data set [11] (single ip 72 μmol/kg, maximum shrinkage no more than 50%) came out at 40%. The shrinkage of spleen entry in [14] was “induced shrinkage of spleen to a considerable extent but not significantly”. Also, in data set [14], the tolerability entry was “well tolerated”.

What is called pEC50 is the negative decadic logarithm of the EC50, by convention in mol/L. What is called pIC50 is the IC50 on a negative log10 scale, so that one unit is a factor of ten.

The values are drawn from US8039668B2, “Naphthalene-based inhibitors of anti-apoptotic proteins” (Burnham Institute for Medical Research, priority 2008, dated 2011).
